Measurements: US20040033963A1, “Urea composition” (priority 2002, published 2004)

Assay: Antioxidant screening: prevention or retardation of air oxidation of anthralin, hydroquinone or banana peel
Conditions: screening methods: air oxidation of anthralin
Experimental: The antioxidant property of some hydroxyacids, polyhydroxy acids and lactones are determined as follows. Oxidation by definition is removal of electrons or addition of oxygen. An antioxidant can be defined as a substance capable of preventing or inhibiting oxidation, or capable of disposing, scavenging, or suppressing formation or actions of peroxide, superoxide or free radicals. We have developed three simple assays to determine if a substance is an antioxidant or not. The antioxidant property is determined by using one of the following screening methods: prevention or retardation of air oxidation of (a) anthralin, (b) hydroquinone, or (c) banana peel. A freshly prepared anthralin solution or cream is bright yellow, and an air oxidized one is brownish or black. A hydroquinone solution or cream is colorless or white color, and an air-oxidized one is brownish or black. A freshly peeled banana peel is light yellow in color, and an oxidized one ranges in color from tan, dark tan, brown to brownish black.
Known antioxidants such as vitamin C and N-acetylcysteine may be used as the positive control in these screening methods.

SMILES | antioxidant property
O=C1O[C@H](CO)[C@@H](O)[C@H](O)[C@H]1O [gluconolactone] | antioxidants
O=C(O)CC(O)(CC(=O)O)C(=O)O [citric acid] | antioxidants
O=C1O[C@H](CO)[C@@H](O)[C@H]1O [ribonolactone] | antioxidants
O=C1O[C@H]([C@H](O)CO)C(O)=C1O [isoascorbic acid] | antioxidants
O=C(O)CC(O)C(=O)O (stereo not shown) [malic acid] | antioxidants
O=C[C@H](O)[C@H]1OC(=O)[C@@H](O)[C@H]1O [glucuronolactone] | antioxidants
O=C(O)[C@H](O)[C@@H](O)[C@H](O)[C@H](O)CO [gluconic acid] | antioxidants
O=C1O[C@@H]([C@H](O)[C@H](O)CO)[C@@H](O)C1O (stereo partly shown) [glucoheptonolactone] | antioxidants
O=C1O[C@H]([C@@H](O)CO)C(O)=C1O [ascorbic acid] | antioxidants
O=C(O)C(O)C(=O)O [tartronic acid] | antioxidants
O=C(O)[C@@H](O)[C@H]1OC(=O)[C@H](O)[C@H]1O [glucarolactone] | antioxidants
O=C(O)CC(C(=O)O)C(O)C(=O)O (stereo not shown) [isocitric acid] | antioxidants
O=C1O[C@@H]([C@H](O)CO)[C@H](O)[C@H]1O [galactonolactone] | antioxidants
